One series has as its system VERO cells. Put plainly: Cytotoxicity assay. It counts as cell-based, African Green Monkey. The conditions noted are these: for SI (selectivity index): CC50 (cytotoxicity)/IC50 (FCR-3); for CC50: inhibition of 50% of VERO cells survival, 48 h, MTT.
The next series can be described thus: Cytotoxicity assay. It counts as cell-based, African Green Monkey. The conditions noted are these: African green monkey, VERO cells (kidney epithelial cells).
The subject of series [1] is multidrug resistant FCR-3 strain of P. falciparum. Put plainly: In vitro antiplasmodial activity. It counts as cell-based, Plasmodium falciparum.
The next series concerns the target PM2 (plasmepsin II) (Plasmodium falciparum, UniProt P46925). The experiment in a line: Plasmepsin assay. The class given is biochemical, P. falciparum. The conditions noted are these: tested at 5 μM.
For series [2], the system named is Salmonella typhimurium TA1535/pSK1002. Put plainly: Genotoxicity assay, SOS/umu test. It counts as cell-based. The conditions noted are these: for genotoxicity (SOS/umu test): with or without S9 fraction; for induction factor (IF): at non-cytotoxic concentrations with or without S9 fraction.
Another series concerns P. berghei ANKA. Put plainly: In vivo antimalarial activity, classical 4-day suppressive test. The arrangement: species or system Plasmodium berghei (Swiss male mice). The conditions noted are these: oral 50 mg/kg/day x 4 days; for % Suppression of parasitemia: day 4.
Series [3] relates to chloroquine sensitive (D6) strain of P. falciparum. The experiment in a line: In vitro antiplasmodial activity. The class given is cell-based, Plasmodium falciparum.
The subject of the next series is β-hematin formation. Put plainly: β-hematin inhibition assay. The conditions noted are these: screened between 0.44 and 110 μM; for IC50: read-out: β-hematin inhibition activity IC50. It counts as biochemical.
Another series in a line: Heme binding studies. The conditions noted are these: 40% DMSO, 0.02 M HEPES, pH 7.4.
Series [4] has as its system hemozoin formation pathway in D6 culture. Put plainly: Target validation in P. falciparum, heme speciation assay. It counts as cell-based, Plasmodium falciparum. The conditions noted are these: increasing concentrations of compound.
Series [5] has as its system multidrug resistant (C235) strain of P. falciparum. Put plainly: In vitro antiplasmodial activity. It counts as cell-based, Plasmodium falciparum.
Setting [6] is: Plasmodium falciparum, FCR3, read-out: FCR-3 IC50, P. falciparum multidrug-resistant strain FCR-3.
[7] abbreviates: read-out: FCR-3 IC50, P. falciparum multidrug-resistant strain FCR-3.
[8] abbreviates: Plasmodium falciparum, D6, 72 h, read-out: Antimalarial activity IC50 D6, chloroquine sensitive strain D6, 72 h.
[9] abbreviates: read-out: Antimalarial activity IC50 D6, chloroquine sensitive strain D6, 72 h.
Where [10] appears, read: Plasmodium falciparum, 72 h, read-out: Antimalarial activity IC50 C235, multidrug-resistant strain C235, 72 h.

Structures are written as SMILES. Where “and” joins values, the source holds several entries; their conditions need not be identical. Equal entries are not always repeated. Entries after “also recorded” stand apart in the source; their conditions may differ. Where two headings read alike, the source gives them in different places. Bounds are passed on as bounds.

For orientation: CC50 means the concentration giving 50% cytotoxicity. Higher therefore signals lower toxicity to the cells. By IC50 is commonly meant the concentration that inhibits the measured activity by half.

Chain of PM2 (plasmepsin II) (P46925 125-453): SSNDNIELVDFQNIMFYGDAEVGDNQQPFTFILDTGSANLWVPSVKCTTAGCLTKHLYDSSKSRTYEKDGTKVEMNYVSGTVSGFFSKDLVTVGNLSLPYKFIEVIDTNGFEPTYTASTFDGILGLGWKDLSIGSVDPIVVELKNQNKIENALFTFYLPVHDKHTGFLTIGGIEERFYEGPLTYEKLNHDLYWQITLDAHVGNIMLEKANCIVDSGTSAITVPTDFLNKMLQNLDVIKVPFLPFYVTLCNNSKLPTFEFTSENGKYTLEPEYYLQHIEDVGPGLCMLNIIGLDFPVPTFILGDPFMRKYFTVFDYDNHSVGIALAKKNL

As to `O=[N+]([O-])c1ccc(N2CCN(CCC(O)c3csc4ccc(F)cc34)CC2)c(C(F)(F)F)c1` (stereo not shown) [Compound 14, 1-(5-fluorobenzo[b]thiophen-3-yl)-3-[4-(4-nitro-2-trifluoromethylphenyl)piperazin-1-yl] propan-1-ol], the “SI (selectivity index)” value with VERO cells was greater than 150. Moreover, in the series “Cytotoxicity assay”, the CC50 at 48 h is greater than 200 µM. Moreover, the IC50 in series [1] (setting [6]) worked out at 1.32 ± 0.2 µM. Also, the “inhibition of PM2 compared to the control” value against PM2 (plasmepsin II) is “no significant inhibition”.
As for `OC(CCN1CC=C(c2ccc(F)cc2)CC1)c1ccc(F)cc1` (stereo not shown) [Compound 26, 1-(4-fluorophenyl)-3-[4-(4-fluorophenyl)-3,6-dihydropyridin-1(2H)-yl]propan-1-ol], in the series on VERO cells, the “SI (selectivity index)” value is greater than 150. The same compound yielded a CC50 at 48 h in “Cytotoxicity assay” greater than 100 µM. The IC50 was less than 1 µM in series [1] (setting [6]) and 0.66 ± 0.01 µM in series [1] (setting [7]).
Regarding `Fc1ccc(C2=CCNCC2)cc1` [AM01, 4-(4-fluorophenyl)-1,2,3,6-tetrahydropyridine], the “genotoxicity (SOS/umu test)” value in [2] was “not considered genotoxic”. For the same compound, the IC50 in series [1] (setting [6]) came out at 8.2 ± 2 µM.
In the series with VERO cells, `OC(CCN1CC=C(c2ccc(F)cc2)CC1)c1ccc(C(F)(F)F)cc1` (stereo not shown) [Compound 20, 3-[4-(4-fluorophenyl)-3,6-dihydropyridin-1(2H)-y])-1-(4-(trifluoromethylphenyl)propan-1-ol] came in with a CC50 greater than 350 µM. Besides, the IC50 in series [1] (setting [7]) worked out at 5.6 ± 2.3 µM.
Regarding `O=[N+]([O-])c1cc(C(F)(F)F)ccc1N1CCN(CCC(O)c2csc3ccc(F)cc23)CC1` (stereo not shown) [Compound 15, 1-(5-fluorobenzo[b]thiophen-3-yl)-3-[4-(2-nitro-4-trifluoromethylphenyl)piperazin-1-yl] propan-1-ol], in the series with VERO cells, the “SI (selectivity index)” value is recorded as greater than 50. This compound displayed a CC50 at 48 h in the series “Cytotoxicity assay” greater than 150 µM. In series [1] (setting [6]), the concentration for half-maximal inhibition (IC50) was found to be 2.23 ± 0.2 µM.
`O=[N+]([O-])c1ccc(NC2CCNCC2)c(C(F)(F)F)c1` [AM02, 4-(4-nitro-2-trifluoromethylphenyl)aminopiperidine]: in series [2], the “genotoxicity (SOS/umu test)” value was “not considered genotoxic”. In series [1] (setting [6]), the IC50 stood at 4.3 ± 0.9 µM.
As for `O=[N+]([O-])c1ccc(N2CCN(CCC(O)c3ccc(F)cc3)CC2)c(C(F)(F)F)c1` (stereo not shown) [Compound 24, 1-(4-fluorophenyl)-3-[4-(4-nitro-2-trifluoromethylphenyl)piperazin-1-yl]propan-1-ol], in series [2], the “induction factor (IF)” value is on record as “lower than 2” and the “genotoxicity (SOS/umu test)” value is “absence of genotoxicity; also recorded: not considered genotoxic”. Moreover, the “SI (selectivity index)” value in the series on VERO cells came to 244. In addition, the CC50 at 48 h in “Cytotoxicity assay” came to 88 µM. In the series on P. berghei ANKA (P. berghei-infected mice), the “MSD (mean survival time)” value turned out to be 8 days and the “% Suppression of parasitemia” value was 17 ± 8%. Besides, the “inhibition of PM2 compared to the control” value on PM2 (plasmepsin II) is “no significant inhibition”.
As to `OC(CCN1CCN(c2ccc(C(F)(F)F)cc2)CC1)c1csc2ccc(F)cc12` (stereo not shown) [Compound 16, 1-(5-fluorobenzo[b]thiophen-3-yl)-3-(4-(4-trifluoromethylphenyl)piperazin-1-yl) propan-1-ol], the “SI (selectivity index)” value with VERO cells is given as greater than 100. Moreover, in the series “Cytotoxicity assay”, the CC50 at 48 h was greater than 250 µM. Also, the IC50 in [1] (setting [6]) was 1.68 ± 0.6 µM. The “inhibition of PM2 compared to the control” value against PM2 (plasmepsin II) is listed as “no significant inhibition”.
On to `O=[N+]([O-])c1ccc(N2CCC(NCCC(O)c3ccc(F)c4ccccc34)CC2)c(C(F)(F)F)c1` (stereo not shown) [Compound 22, 1-(4-Fluoronaphthalen-1-yl)-3-((1-(4-nitro-2-(trifluoromethyl)phenyl)piperidin-4-yl)amino) propan-1-ol], for which, in series [2], the “induction factor (IF)” value is “lower than 2” and the “genotoxicity (SOS/umu test)” value is given as “absence of genotoxicity; also recorded: not considered genotoxic”. Also, the “SI (selectivity index)” value in the series with VERO cells amounted to 37. In addition, the CC50 at 48 h in the series “Cytotoxicity assay” amounted to 5.5 µM. Also, in series [3] (setting [8]), the IC50 is no more than 0.19 µM. In series [3] (setting [9]), the IC50 amounted to 0.11 ± 0.01 µM. For the same compound, in the series with P. berghei ANKA (P. berghei-infected mice), the “MSD (mean survival time)” value is greater than 35 days and the “cure / survival of treated mice” value is given as “complete cure”. Besides, in the series on P. berghei ANKA (P. berghei-infected mice, 50 mg/kg/day), the “% Suppression of parasitemia” value is 98 ± 1% and 98%. For the same compound, the “signs of toxicity in treated mice” value with P. berghei ANKA is “no signs of toxicity”. Also, in the series with β-hematin formation, the IC50 was found to be 80.7 ± 1.7 µM. For the same compound, the “affinity for the μ-oxo dimer form of heme (binding curve)” value in the series “Heme binding studies” is on record as “affinity resembling that of chloroquine”. Also, the “levels of free heme and hemozoin” value in [4] is “remained constant”. In addition, the “inhibition of PM2 compared to the control” value at PM2 (plasmepsin II) is reported as “no significant inhibition”.
Compound `O=[N+]([O-])c1ccc(N2CCC(NCCC(O)c3csc4ccc(F)cc34)CC2)c(C(F)(F)F)c1` (stereo not shown) [Compound 18] gave a CC50 with VERO cells of 6.3 µM. Moreover, the concentration for half-maximal inhibition (IC50) in series [1] (setting [7]) stood at 0.7 ± 0.1 µM. For the same compound, the “inhibition of PM2 compared to the control” value at PM2 (plasmepsin II) is “no significant inhibition”.
Consider `OC(CCN1CC=C(c2ccc(F)cc2)CC1)c1ccc2ccccc2c1` (stereo not shown) [Compound 19, 3-[4-(4-fluorophenyl)-3,6-dihydropyridin-1(2H)-yl]-1-(naphthalen-2-yl)propan-1-ol], for which the “SI (selectivity index)” value with VERO cells stood at 1.75. In “Cytotoxicity assay”, this compound had a CC50 at 48 h of 24.6 µM. Further, the IC50 in [1] (setting [6]) is 14 ± 3.5 µM.
In “Cytotoxicity assay”, `CCN(CC)CCCC(C)Nc1ccnc2cc(Cl)ccc12` (stereo not shown) [CQ, chloroquine, reference compound] yielded a CC50 at 48 h greater than 50 µM. For the same compound, the IC50 in series [3] (setting [8]) was determined as 0.014 ± 0.001 µM; in series [5] (setting [10]), 0.048 ± 0.004 µM; in the series with β-hematin formation, 48.7 ± 2.7 µM; in series [1] (setting [6]), 0.13 µM.
Consider `O=[N+]([O-])c1ccc(N2CCCN(CCC(O)c3csc4ccc(F)cc34)CC2)c(C(F)(F)F)c1` (stereo not shown) [Compound 17, 1-(5-fluorobenzo[b]thiophen-3-yl)-3-[4-(4-nitro-2-trifluoromethylphenyl)-1,4-diazepan-1-yl]propan-1-ol], for which the “SI (selectivity index)” value in the series on VERO cells turned out to be 18. Also, the midpoint of cytotoxicity in “Cytotoxicity assay”, the CC50 at 48 h, lay at 13.3 µM. For the same compound, the figures for the IC50 in series [1] (setting [6]) and in [1] (setting [7]) were less than 1 µM and 0.75 ± 0.02 µM, respectively. Moreover, the “inhibition of PM2 compared to the control” value on PM2 (plasmepsin II) was “no significant inhibition”.
For `OC(CCN1CCN(c2ccc(C(F)(F)F)cc2)CC1)c1ccc(F)c2ccccc12` (stereo not shown) [Compound 21], in the series on VERO cells, the CC50 is greater than 100 µM. Moreover, the IC50 in series [1] (setting [7]) came out at 0.93 ± 0.7 µM.
`COc1cccc2c1C(=O)c1c(O)c3c(c(O)c1C2=O)C[C@@](O)(C(=O)CO)C[C@@H]3O[C@H]1C[C@H](N)[C@H](O)[C@H](C)O1` [Doxorubicin, reference compound] registered a CC50 at 48 h in the series “Cytotoxicity assay” of 6.4 µM.
As to `OC(CCN1CC=C(c2ccc(F)cc2)CC1)c1ccc(F)c2ccccc12` (stereo not shown) [Compound 23, 1-(4-Fluoronaphthalen-1-yl)-3-[4-(4-fluorophenyl)-3,6-dihydropyridin-1(2H)-yl] propan-1-ol], the “induction factor (IF)” value in [2] was “lower than 2”. For the same compound, the “genotoxicity (SOS/umu test)” value in series [2] is “absence of genotoxicity; also recorded: not considered genotoxic”. Besides, in the series with VERO cells, the “SI (selectivity index)” value was 124. Besides, half-maximal cytotoxicity in the series “Cytotoxicity assay” (CC50 at 48 h) was put at 49.5 µM. For the same compound, the IC50 in series [3] (setting [8]) was no more than 0.19 µM; in [3] (setting [9]), 0.19 ± 0.04 µM; in series [5] (setting [10]), no more than 0.28 µM; in [5] (read-out: Antimalarial activity IC50 C235, multidrug-resistant strain C235, 72 h) it was 0.28 ± 0.05 µM. The “MSD (mean survival time)” value in the series on P. berghei ANKA (P. berghei-infected mice) was 9 days. The “% Suppression of parasitemia” value in the series on P. berghei ANKA (P. berghei-infected mice) turned out to be 73 ± 16%. Also, in the series on β-hematin formation, the “β-hematin inhibition activity IC50” value is given as “Not active”. The “inhibition of PM2 compared to the control” value at PM2 (plasmepsin II) is “no significant inhibition”.

Source of the values: PMC5061469 (International Journal for Parasitology: Drugs and Drug …, 2016).
